The subject of this assay is peripheral blood leukocytes of normal mice. Briefly: Effects on peripheral blood leukocytes of normal mice (peripheral blood routine test). Format: in vivo. Particulars: G-CSF 22.5 ug/kg sc once a day. The text has this: Animal hematology analyzer, model: HEMAVET950 • 2. Method
The mice were divided into blank control group, positive control group and the dithiolopyrrolone series of compounds group, there are 10 mice in each group.

[1] abbreviates: day 0 (before administration), compounds 20 mg/kg ig once a day.
[2] abbreviates: day 3, compounds 20 mg/kg ig once a day.
[3] abbreviates: day 5, compounds 20 mg/kg ig once a day.

Structures are written as SMILES.

As to `COc1ccc(-n2c3cssc-3c(NC(=O)OCC(C)C)c2=O)c(OC)c1` [compound 002], the “NE % (percentage of neutrophils in the total number of white blood cells)” value by setting is: under setting [1], 20.11%; under setting [2], 52.13%; under setting [3], 68.69%. The WBC count worked out at 8.12e+09 L⁻¹ under setting [1], 1.189e+10 L⁻¹ under setting [2] and 1.678e+10 L⁻¹ under setting [3].

For `COc1ccc(-n2c3cssc-3c(NC(=O)OCc3ccccc3)c2=O)c(OC)c1` [compound 003], the “NE % (percentage of neutrophils in the total number of white blood cells)” value reads like this: under setting [1], 32.51%; under setting [2], 54.34%; under setting [3], 68.30%. Further, the WBC count reads like this: under setting [1], 7.84e+09 L⁻¹; under setting [2], 1.456e+10 L⁻¹; under setting [3], 1.744e+10 L⁻¹.

As to `COC(=O)Nc1c2sscc-2n(-c2ccc(OC)cc2OC)c1=O` [compound 005], the “NE % (percentage of neutrophils in the total number of white blood cells)” value by setting is: under setting [1], 26.46%; under setting [2], 35.55%; under setting [3], 46.65%. The WBC count under setting [1] is 8.08e+09 L⁻¹, the WBC count under setting [2] was 8.76e+09 L⁻¹ and the WBC count under setting [3] worked out at 8.64e+09 L⁻¹.

For `COc1ccc(-n2c3cssc-3c(NC(=O)OC(C)C)c2=O)c(OC)c1` [compound 007], the “NE % (percentage of neutrophils in the total number of white blood cells)” value turned out to be 23.31% under setting [1], 48.67% under setting [2] and 52.02% under setting [3]. The compound further gave a WBC count under setting [1] of 8.11e+09 L⁻¹, a WBC count under setting [2] of 1.188e+10 L⁻¹ and a WBC count under setting [3] of 1.222e+10 L⁻¹.

For `C=CCOC(=O)Nc1c2sscc-2n(-c2ccc(OC)cc2OC)c1=O` [compound 008], the “NE % (percentage of neutrophils in the total number of white blood cells)” value reads like this: under setting [1], 31.56%; under setting [2], 60.03%; under setting [3], 65.55%. Further, the WBC count under setting [1] came to 8.88e+09 L⁻¹, the WBC count under setting [2] was determined as 1.779e+10 L⁻¹ and the WBC count under setting [3] was 1.876e+10 L⁻¹.

Consider `CCCOC(=O)Nc1c2sscc-2n(-c2ccc(OC)cc2OC)c1=O` [compound 009], for which the “NE % (percentage of neutrophils in the total number of white blood cells)” value is reported as 23.62% under setting [1], 27.46% under setting [2] and 47.78% under setting [3]. Moreover, the WBC count by setting is: under setting [1], 9.01e+09 L⁻¹; under setting [2], 1.39e+10 L⁻¹; under setting [3], 1.421e+10 L⁻¹.

On to `COc1ccc(OC(=O)Nc2c3sscc-3n(-c3ccc(OC)cc3OC)c2=O)cc1` [compound 010], for which the “NE % (percentage of neutrophils in the total number of white blood cells)” value was 20.86% under setting [1], 24.34% under setting [2] and 32.34% under setting [3]. Besides, the WBC count is, setting by setting: under setting [1], 8.87e+09 L⁻¹; under setting [2], 1.018e+10 L⁻¹; under setting [3], 1.023e+10 L⁻¹.

As to `CCCCCOC(=O)Nc1c2sscc-2n(-c2ccc(OC)cc2OC)c1=O` [compound 011], the “NE % (percentage of neutrophils in the total number of white blood cells)” value by setting is: under setting [1], 27.68%; under setting [2], 46.65%; under setting [3], 51.87%. For the same compound, the WBC count was determined as 8.76e+09 L⁻¹ under setting [1], 1.146e+10 L⁻¹ under setting [2] and 1.188e+10 L⁻¹ under setting [3].

Turning to `COc1ccc(-n2c3cssc-3c(NC(=O)OCC3CCCO3)c2=O)c(OC)c1` (stereo not drawn) [compound 012], the “NE % (percentage of neutrophils in the total number of white blood cells)” value was found to be 34.02% under setting [1], 38.98% under setting [2] and 49.07% under setting [3]. Moreover, the WBC count was 9.03e+09 L⁻¹ under setting [1], 1.146e+10 L⁻¹ under setting [2] and 1.201e+10 L⁻¹ under setting [3].

`CCCCOC(=O)Nc1c2sscc-2n(-c2ccc(OC)cc2OC)c1=O` [compound 013]: the “NE % (percentage of neutrophils in the total number of white blood cells)” value runs as follows: under setting [1], 25.6%; under setting [2], 48.76%; under setting [3], 52.84%. Also, the WBC count reads like this: under setting [1], 6.36e+09 L⁻¹; under setting [2], 1.269e+10 L⁻¹; under setting [3], 1.329e+10 L⁻¹.

Take `COc1ccc(-n2c3cssc-3c(NC(=O)OC3CCCC3)c2=O)c(OC)c1` [compound 014]: the “NE % (percentage of neutrophils in the total number of white blood cells)” value worked out at 20.81% under setting [1], 23.39% under setting [2] and 40.40% under setting [3]. In addition, the WBC count reads like this: under setting [1], 6.78e+09 L⁻¹; under setting [2], 1.156e+10 L⁻¹; under setting [3], 1.201e+10 L⁻¹.

For `CCCCCCCOC(=O)Nc1c2sscc-2n(-c2ccc(OC)cc2OC)c1=O` [compound 015], the “NE % (percentage of neutrophils in the total number of white blood cells)” value runs as follows: under setting [1], 20.76%; under setting [2], 25.65%; under setting [3], 38.87%. The WBC count runs as follows: under setting [1], 7.46e+09 L⁻¹; under setting [2], 1.156e+10 L⁻¹; under setting [3], 1.334e+10 L⁻¹.

As for `COc1ccc(-n2c3cssc-3c(NC(=O)OCCCl)c2=O)c(OC)c1` [compound 016], the “NE % (percentage of neutrophils in the total number of white blood cells)” value under setting [1] was found to be 18.79%, the “NE % (percentage of neutrophils in the total number of white blood cells)” value under setting [2] was found to be 40.47% and the “NE % (percentage of neutrophils in the total number of white blood cells)” value under setting [3] is 45.76%. Besides, the WBC count came out at 7.34e+09 L⁻¹ under setting [1], 1.047e+10 L⁻¹ under setting [2] and 1.156e+10 L⁻¹ under setting [3].

For the compound `COc1ccc(-n2c3cssc-3c(NC(=O)Oc3ccc(Cl)cc3)c2=O)c(OC)c1` [compound 017], the “NE % (percentage of neutrophils in the total number of white blood cells)” value under setting [1] is 23.24%, the “NE % (percentage of neutrophils in the total number of white blood cells)” value under setting [2] amounted to 28.88% and the “NE % (percentage of neutrophils in the total number of white blood cells)” value under setting [3] is given as 36.90%. In addition, the WBC count turned out to be 6.36e+09 L⁻¹ under setting [1], 8.67e+09 L⁻¹ under setting [2] and 8.88e+09 L⁻¹ under setting [3].

For the compound `COc1ccc(-n2c3cssc-3c(NC(=O)Oc3ccc(C)cc3)c2=O)c(OC)c1` [compound 018], the “NE % (percentage of neutrophils in the total number of white blood cells)” value under setting [1] stood at 21.74%, the “NE % (percentage of neutrophils in the total number of white blood cells)” value under setting [2] was determined as 23.38% and the “NE % (percentage of neutrophils in the total number of white blood cells)” value under setting [3] is given as 26.04%. The WBC count is, setting by setting: under setting [1], 6.15e+09 L⁻¹; under setting [2], 8.59e+09 L⁻¹; under setting [3], 9.03e+09 L⁻¹.

Take `COc1ccc(-n2c3cssc-3c(NC(=O)OCc3ccco3)c2=O)c(OC)c1` [compound 019]: the “NE % (percentage of neutrophils in the total number of white blood cells)” value runs as follows: under setting [1], 24.36%; under setting [2], 28.89%; under setting [3], 29.84%. The WBC count reads like this: under setting [1], 6.88e+09 L⁻¹; under setting [2], 9.35e+09 L⁻¹; under setting [3], 1.087e+10 L⁻¹.

(Values after US8258176B2, “Dithiolopyrrolone compounds, the preparation and the use thereof” (Shanghai Institute of Pharmaceutical Industry, priority 2007, dated 2012).)
